In US20060216336A1, “Transdermal therapeutic system for Parkinson's Disease” (priority 2002, published 2006):

Tests used:
[1] = Multiple dose trial with rotating patch application sites in early-stage Parkinson's disease: rotigotine pharmacokinetics (Example 4); settings: human, in vivo; for concentration at […]: 23.5 H
From the text: Each day, a fresh patch was placed on a new skin site (abdomen, flank, upper arm, shoulder, thigh, hip) in a rotating order. The silicone transdermal patches were made in accordance with the teachings of U.S. Patent Application Publication No. US 2003/0026830 at paragraphs 38-42, U.S. Patent Application Publication No. US 2003/0027793 at paragraphs 37-41 and U.S. Pat. No. 6,884,434, columns 5-6, Example 2 and comprised the following layers and components:
The trial consisted of an Eligibility Assessment (EA), a 24-day Titration Phase (4.5 to 18.0 mg/day doses; incremental increases of 4.5mg/day every 6 days), a 6-day Maintenance Phase (18.0 mg/day dose), a 6-day De-escalation Phase (13.5/9.0/4.5mg/day decreasing dose every 2 days), and a Safety Follow-Up visit 2 days following the last dose.
The silicone transdermal patches were made in accordance with the teachings of U.S. Patent Application Publication No. US 2003/0026830 at paragraphs 3842 and U.S. Patent Application Publication No. US 2003/0027793 at paragraphs 3741 comprised the following layers and components as disclosed above
The 18.0 mg/day dose used 2×20 cm^2 patches. Initial doses were 4.5 mg/day with weekly increases of 4.5 mg/day to a maximum target dose of 18.0 mg/day.

RLS symptoms = settings: administration of rotigotine; cited from earlier work
[2] = rotigotine plasma concentration Geo. Mean
[3] = rotigotine plasma concentration Max
[4] = rotigotine plasma concentration Mean
[5] = rotigotine plasma concentration Median
[6] = rotigotine plasma concentrations, Geo. Mean
[7] = rotigotine plasma concentrations, Mean
[8] = rotigotine plasma concentrations, Median

CCCN(CCc1cccs1)[C@H]1CCc2c(O)cccc2C1 [rotigotine, (6S)-6{propyl[2-(2-thienyl)ethyl]amino}-5,6,7,8-tetrahydro-1-naphthalenol]
concentration at […] ([1]; 18 mg/day, rotigotine plasma concentration Min, Upper Arm, Day 27): 0.129 ng/mL
concentration at […] ([1]; 18 mg/day, rotigotine plasma concentration Min, Upper Arm, Day 30): 0.347 ng/mL
concentration at […] ([1]; 18 mg/day, rotigotine plasma concentration Min, Upper Arm, Days 27 & 30 Combined): 0.129 ng/mL
concentration at […] ([1]; 18 mg/day, rotigotine plasma concentrations, Geo. Mean, Application Site = Abdomen, Day 27): 0.806 ng/mL
concentration at […] ([1]; 18 mg/day, rotigotine plasma concentrations, Geo. Mean, Application Site = Abdomen, Day 30): 0.545 ng/mL
concentration at […] ([1]; 18 mg/day, rotigotine plasma concentrations, Geo. Mean, Application Site = Abdomen, Days 27 & 30 Combined): 0.676 ng/mL
concentration at 7 h ([1]; 18 mg/day, rotigotine plasma concentrations, Geo. Mean, Application Site = Flank, Days 27 & 30 Combined, 7 H): 0.681 ng/mL
concentration at […] ([1]; 18 mg/day, rotigotine plasma concentrations, Geo. Mean, Application Site = Flank, Days 27 & 30 Combined): 0.81 ng/mL
concentration at […] ([1]; 18 mg/day, rotigotine plasma concentrations, Mean, Application Site = Abdomen, Day 27): 0.929 ng/mL
concentration at […] ([1]; 18 mg/day, rotigotine plasma concentrations, Mean, Application Site = Abdomen, Day 30): 0.613 ng/mL
concentration at […] ([1]; 18 mg/day, rotigotine plasma concentrations, Mean, Application Site = Abdomen, Days 27 & 30 Combined): 0.787 ng/mL
concentration at […] ([1]; 18 mg/day, rotigotine plasma concentrations, Mean, Application Site = Flank, Days 27 & 30 Combined): 1.1 ng/mL
concentration at […] ([1]; 18 mg/day, rotigotine plasma concentrations, Median, Application Site = Abdomen, Day 30): 0.415 ng/mL
concentration at […] ([1]; 18 mg/day, rotigotine plasma concentrations, Median, Application Site = Abdomen, Days 27 & 30 Combined): 0.677 ng/mL
concentration at […] ([1]; 18 mg/day, rotigotine plasma concentrations, Median, Application Site = Flank, Days 27 & 30 Combined): 0.714 ng/mL
AUC(0-t) ([1]; AUC 0-t, ss): 23.8 ng·h/mL
concentration at 27 day ([1]; Average Concentration): 0.882 ng/mL
concentration at 30 day ([1]; Average Concentration): 0.975 ng/mL
concentration at 5 h [1, 2]: 0.971 ng/mL
concentration at 6 h [1, 2]: 0.837 ng/mL
concentration at 7 h [1, 2]: 0.993 ng/mL
concentration at 14 h [1, 2]: 1.15 ng/mL
concentration at 16 h [1, 2]: 1.15 ng/mL
concentration at 18 h [1, 2]: 1.16 ng/mL
concentration at 20 h [1, 2]: 1.14 ng/mL
concentration at 22 h [1, 2]: 0.815 ng/mL
concentration at 10 h [1, 3]: 1.98 ng/mL
concentration at 16 h [1, 3]: 2.53 ng/mL
concentration at 18 h [1, 3]: 3.25 ng/mL
concentration at 22 h [1, 3]: 1.77 ng/mL
concentration at 6 h [1, 4]: 0.911 ng/mL
concentration at 7 h [1, 4]: 1.08 ng/mL
concentration at 10 h [1, 4]: 1.17 ng/mL
concentration at 14 h [1, 4]: 1.26 ng/mL
concentration at 16 h [1, 4]: 1.28 ng/mL
concentration at 18 h [1, 4]: 1.32 ng/mL
concentration at 20 h [1, 4]: 1.4 ng/mL
concentration at 22 h [1, 4]: 0.904 ng/mL
concentration at 5 h [1, 5]: 0.956 ng/mL
concentration at 14 h [1, 5]: 1.21 ng/mL
concentration at 16 h [1, 5]: 1.06 ng/mL
concentration at 18 h [1, 5]: 1.17 ng/mL
concentration at 20 h [1, 5]: 1.04 ng/mL
concentration at 22 h [1, 5]: 0.734 ng/mL
concentration at 10 h [1, 6]: 0.816 ng/mL
concentration at 12 h [1, 6]: 0.848 ng/mL
concentration at 14 h [1, 6]: 0.84 ng/mL
concentration at 16 h [1, 6]: 1 ng/mL
concentration at 18 h [1, 6]: 1.01 ng/mL
concentration at 20 h [1, 6]: 1.02 ng/mL
concentration at 22 h [1, 6]: 0.91 ng/mL
concentration at 10 h [1, 7]: 0.909 ng/mL
concentration at 12 h [1, 7]: 0.911 ng/mL
concentration at 14 h [1, 7]: 0.931 ng/mL
concentration at 16 h [1, 7]: 1.07 ng/mL
concentration at 18 h [1, 7]: 1.06 ng/mL
concentration at 20 h [1, 7]: 1.08 ng/mL
concentration at 22 h [1, 7]: 1.01 ng/mL
concentration at 10 h [1, 8]: 0.766 ng/mL
concentration at 12 h [1, 8]: 0.763 ng/mL
concentration at 14 h [1, 8]: 0.816 ng/mL
concentration at 16 h [1, 8]: 0.904 ng/mL
concentration at 18 h [1, 8]: 1.08 ng/mL
concentration at 20 h [1, 8]: 0.962 ng/mL
concentration at 22 h [1, 8]: 0.804 ng/mL
effect on RLS symptoms (RLS symptoms): suppression and reduction of RLS symptoms
